From patent publication US11226337B2, “Chemoproteomic profiling of protein electrophilic and oxidative post-translational modifications” (Zenagem, LLC, priority 2017, dated 2022) come the findings set out here.

Experiment in all cases: SILAC RP-ABPP
Type in all cases: cell-based

The target of test [1] is T1, GAA Lysosomal alphaglucosidase (P10253) (Homo sapiens, UniProt P10253).
T1 construct: In Situ Labelling of Cells with Hydrazine Probes for MS Experiments; endogenous in cells
As to conditions: SILAC H/L, MDA-MB-231.

The target in test [2] is T2, CTSZ Cathepsin Z (Q9UBR2) (Homo sapiens, UniProt Q9UBR2).
T2 construct: In Situ Labelling of Cells with Hydrazine Probes for MS Experiments; endogenous in cells; host or cells: HEK293T and MDA-MB-231
T2 sequence (Q9UBR2 62-303): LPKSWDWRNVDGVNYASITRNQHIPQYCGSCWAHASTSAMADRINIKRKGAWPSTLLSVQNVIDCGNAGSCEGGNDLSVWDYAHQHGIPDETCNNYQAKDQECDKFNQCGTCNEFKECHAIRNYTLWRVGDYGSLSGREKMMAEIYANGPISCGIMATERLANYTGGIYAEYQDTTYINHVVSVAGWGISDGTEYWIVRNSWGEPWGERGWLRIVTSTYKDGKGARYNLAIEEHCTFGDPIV
As to conditions: SILAC H/L, MDA-MB-231.

Test [3] concerns the target T3, LIPA Lysosomal acid lipase/cholesteryl ester (P38571) (Homo sapiens, UniProt P38571).
T3 construct: In Situ Labelling of Cells with Hydrazine Probes for MS Experiments; endogenous in cells
T3 sequence (P38571 77-399): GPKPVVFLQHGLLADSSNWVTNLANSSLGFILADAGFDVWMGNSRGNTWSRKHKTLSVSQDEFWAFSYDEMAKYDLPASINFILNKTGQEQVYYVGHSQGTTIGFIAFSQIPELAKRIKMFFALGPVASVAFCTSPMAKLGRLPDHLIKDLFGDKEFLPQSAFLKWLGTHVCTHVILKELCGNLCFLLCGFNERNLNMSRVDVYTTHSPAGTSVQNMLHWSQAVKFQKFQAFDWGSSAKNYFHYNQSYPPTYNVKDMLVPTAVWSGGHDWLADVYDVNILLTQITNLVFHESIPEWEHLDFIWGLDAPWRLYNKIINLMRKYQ
Particulars: SILAC H/L, MDA-MB-231.

In test [4] the target is T4, RARS2 Probable arginine tRNA ligase (Q5T160) (Homo sapiens, UniProt Q5T160).
T4 construct: shared by both the endogenous and recombinant forms of these proteins; endogenous in cells; host or cells: HEK293T and MDA-MB-231
T4 sequence (Q5T160 17-578): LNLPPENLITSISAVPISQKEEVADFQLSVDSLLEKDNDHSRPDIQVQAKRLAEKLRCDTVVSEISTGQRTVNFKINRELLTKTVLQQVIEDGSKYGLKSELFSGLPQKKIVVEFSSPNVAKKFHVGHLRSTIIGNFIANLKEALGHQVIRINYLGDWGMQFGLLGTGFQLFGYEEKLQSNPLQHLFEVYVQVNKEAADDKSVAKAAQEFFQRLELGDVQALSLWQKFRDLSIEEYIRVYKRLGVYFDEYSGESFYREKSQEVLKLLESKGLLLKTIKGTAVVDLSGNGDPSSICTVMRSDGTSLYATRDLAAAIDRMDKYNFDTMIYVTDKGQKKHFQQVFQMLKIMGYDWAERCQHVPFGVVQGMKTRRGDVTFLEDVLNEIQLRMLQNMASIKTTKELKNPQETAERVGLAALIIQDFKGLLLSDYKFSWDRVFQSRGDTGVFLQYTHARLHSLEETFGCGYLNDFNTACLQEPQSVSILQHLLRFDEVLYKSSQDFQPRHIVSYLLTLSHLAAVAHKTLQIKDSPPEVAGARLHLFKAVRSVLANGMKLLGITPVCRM
As to conditions: SILAC H/L.

Each structure is given as a SMILES string.

Take `C#CCNN.Cl` [probe 1, prop-2-yn-1-ylhydrazine hydrochloride]: the enrichment ratioavg in test [1] (probe 1 3 mM 0.5 h vs probe 3) is listed as 9; in test [2] (probe 1 3 mM 0.5 h vs probe 3), 13; in test [3] (probe 1 3 mM 0.5 h vs probe 3), 7; in test [4] (probe 1 3 mM 0.5 h vs probe 3, HEK293T), 16. Moreover, the competition ratioavg in test [1] (probe 1 vs probe 1+10x probe 3) was found to be 2; in test [2] (probe 1 vs probe 1+10x probe 3), 3; in test [3] (probe 1 vs probe 1+10x probe 3) it was 4; in test [4] (probe 1 vs probe 1+10x probe 3, HEK293T), 4.

With `C#CCCNC(=O)c1ccc(NN)cc1.Cl` [probe 2, N-(but-3-yn-1-yl)-4-hydrazinylbenzamide hydrochloride], the enrichment ratioavg is given as 20 in test [1] (probe 2 1 mM 0.5 h vs probe 4), 19 in test [2] (probe 2 1 mM 0.5 h vs probe 4) and 17 in test [3] (probe 2 1 mM 0.5 h vs probe 4). Besides, the competition ratioavg is reported as 4 in test [1] (probe 2 vs probe 2+10x probe 4); 5 in test [2] (probe 2 vs probe 2+10x probe 4); 3 in test [3] (probe 2 vs probe 2+10x probe 4); 3 in test [4] (probe 2 vs probe 2+10x probe 4, cell line not given).
